Earlier results as cited in PMC2817966 (Journal of chemical information and modeling, 2009).

Experiments:
[1] = tested on: Tyr181Cys variant
[2] = tested on: WT HIV-1

| SMILES | activity towards a Y181C variant [1] [µM] | potency towards WT HIV-1 [2] [nM] | IC50 ([1]; read-out: IC50 against Tyr181Cys variant) [nM] | IC50 ([2]; read-out: IC50 against WT HIV) [nM] |
| --- | --- | --- | --- | --- |
| CC(Sc1nc(N)cc(Cl)n1)c1cc2ccoc2cn1 (single isomer, unassigned; (-)) [PNU142721, (-)-6-Chloro-2-[(1-furo[2,3-c]pyridin-5-ylethyl)thio]-4-pyrimidinamine] | 1 | 1 |  |  |
| Cc1cc(C)cc(Oc2c(CSCc3ccco3)c(C)[nH]c(=O)c2I)c1 [Compound R221239] |  |  | 5 | 2 |
